Experiment: Stability of vitamin D2 in milk boiled twice (relative assay)
Type: physicochemical
Procedure: In an example, the effect of bioactive microsphere of the present disclosure on the stability of bioactive, when subjected to the deteriorating effect of processing parameter such as heating, was studied. The stability of vitamin D2 was determined by heating the milk containing the bioactive microsphere as prepared in Example 1, and the milk containing pure vitamin D2, i.e., control vitamin D2.
For the purpose of this example, both the vitamin D2 containing milk were boiled twice, and the amount of vitamin D2 was determined after second boiling, as shown in Table 1. The difference in the amount of vitamin D2 in the milk before boiling, and after the second boiling, illustrated the deteriorating effect of heat on the vitamin D2.

C=C1CC[C@H](O)C/C1=C/C=C1\CCC[C@]2(C)[C@@H]([C@H](C)/C=C/[C@H](C)C(C)C)CC[C@@H]12 [Control vitamin D2, vitamin D2]
Stability of vitamin D2 in milk on boiling (in words) (milk, boiled two times): deactivated on boiling | % Relative assay Before boiling (%) (vitamin D2 in milk, before boiling): 100% | % Degradation (vitamin D2 in milk, before boiling vs after second boiling): 65% | % Relative assay After second boiling (%) (vitamin D2 in milk, boiled twice, after second boiling): 35%
